We go through twelve molecules from PubChem BioAssay (NCI).

Common to all, as to assay: DTP human tumour cell line panel, 48 h
Experiment [1] has as its system A549 NSCLC.
Experiment [2] relates to ACHN renal.
Experiment [3] concerns CCRF-CEM leukemia.
Experiment [4] relates to KM12 colon.
Experiment [5] deals with MDA-N.
The test system of experiment [6] is OVCAR-4 ovarian.
In experiment [7] the test system is RXF 393 renal.
The test system of experiment [8] is SF-539 CNS.
The subject of experiment [9] is SN12C renal.
In experiment [10] the test system is SNB-75 CNS.
Experiment [11] has as its system SW-620 colon.
Experiment [12] concerns UACC-257 melanoma.
Experiment [13] concerns LOX IMVI melanoma.

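The compound was tested at five concentrations on cells cultured in 96-well plates, with a 48-hour exposure period. At the GI50, growth is halved. TGI is the concentration that stops growth completely.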

The term TGI denotes the concentration at which net growth stops. Usually GI50 stands for the concentration at which growth is held to half of that of the control.

In the case of `O=C1C=CC(=O)c2c(O)c(Br)c(Br)c(O)c21`, the TGI in experiment [1] was 41.5 µM; in experiment [2], 5.99 µM; in experiment [3], 3.92 µM; in experiment [4], 16.7 µM; in [5], 5.67 µM; in experiment [6], 9.08 µM. For the same molecule, the TGI in experiment [7] turned out to be 6.13 µM; in experiment [8], 30.5 µM; in experiment [9], 18.4 µM; in experiment [10] it was 38.4 µM; in experiment [11] it was 3.44 µM; in experiment [12] it was 8.25 µM.

Consider `COc1cc(C(=O)CC2OC(=O)C(Cl)=C2Cl)ccc1Cl` (configuration not stated), for which the concentration for total growth inhibition (TGI) in experiment [1], in experiment [2], in experiment [3], in experiment [4], in experiment [13] and in experiment [6] was > 100 µM in each case. The concentration for total growth inhibition (TGI) in experiment [7], in experiment [8], in [9], in experiment [10], in experiment [11] and in experiment [12] was > 100 µM each time.

In the case of `O=C1c2ccccc2C(=O)c2c(Nc3cc4c5c(ccc6c7ccc8c9c(cc(Nc%10cccc%11c%10C(=O)c%10ccccc%10C%11=O)c(c3c56)c97)-c3ccccc3C8=O)C(=O)c3ccccc3-4)cccc21`, the TGI in experiment [1], in [2], in experiment [4], in experiment [13], in experiment [5] and in experiment [6] was > 100 µM each time. The TGI in experiment [7] is > 100 µM; in experiment [9], > 100 µM; in [10], 41.5 µM; in experiment [11] it was > 100 µM; in [12], > 100 µM.

As to `CO/N=C\c1cc(O)c(O)c(/C=N/OC)c1`, the total growth inhibition concentration (TGI) in experiment [1], in experiment [2], in experiment [3], in experiment [4], in experiment [13] and in experiment [5] was > 100 µM throughout. Moreover, the total growth inhibition concentration (TGI) in experiment [6], in experiment [7], in experiment [8], in experiment [9], in experiment [10] and in experiment [11] was > 100 µM throughout. Also, in experiment [12], the TGI is > 100 µM.

Turning to `Cc1nc2[nH]ncn2c(=O)c1CCCl`, the TGI in experiment [1], in experiment [2], in experiment [3], in [13], in [5] and in [6] was > 10 µM each time. Moreover, the concentration for total growth inhibition (TGI) in experiment [7], in experiment [8], in experiment [9], in experiment [10] and in experiment [11] was > 10 µM throughout.

Consider `O=C(c1ccccc1)c1nc2ccc(Cl)cc2c2c1CCCO2`, for which the total growth inhibition concentration (TGI) in experiment [2], in [4], in [13], in experiment [6], in [7] and in experiment [9] was > 100 µM each time. For the same molecule, the TGI in experiment [11] is > 100 µM.

Consider `N#C/C(=C\c1ccc(Br)cc1)n1nnc2cc(Cl)c(Cl)cc21`, for which the GI50 in experiment [1] was 3.1 µM; in experiment [2], 1.73 µM; in experiment [3], 1.71 µM; in experiment [4], 2.92 µM; in [13], 1.71 µM; in [8], 2.2 µM. In addition, the GI50 in experiment [10] is 1.73 µM. Moreover, the concentration for total growth inhibition (TGI) is > 100 µM in [1]; 3.24 µM in experiment [2]; > 100 µM in experiment [3]; > 100 µM in experiment [4]; 3.3 µM in [13]; 4.86 µM in experiment [8]. The molecule also returned a concentration for total growth inhibition (TGI) in experiment [10] of 8.26 µM.

For the molecule `Clc1ccc(C[P+]2(c3ccccc3)CCCCC2)cc1`, the TGI in [1], in experiment [2], in experiment [3], in experiment [4], in [13] and in experiment [7] was > 100 µM throughout. For the same molecule, the TGI was > 100 µM in experiment [8]; > 100 µM in experiment [9]; > 100 µM in experiment [10]; > 100 µM in [11]; 89.5 µM in [12].

With `C[C@]12CC[C@@H]3c4ccc(O)cc4CC[C@H]3[C@@H]1CC[C@@H]2OC(=O)CCc1ccccc1`, the total growth inhibition concentration (TGI) came out at 52.9 µM in experiment [1]; 35.5 µM in experiment [2]; 67.5 µM in experiment [3]; 78.7 µM in [4]; 39.4 µM in experiment [13]; 52.9 µM in experiment [5]. Moreover, the TGI amounted to 39.1 µM in experiment [6]; 33.6 µM in experiment [7]; 49.6 µM in experiment [9]; 33.8 µM in experiment [10]; 64.7 µM in [11]; 35.2 µM in [12].

On to `O=C(c1ccccc1)C1C(c2ccccc2)N1S(=O)(=O)c1ccccc1` (configuration not stated), for which the TGI in [1], in experiment [3], in [4], in experiment [13], in [5] and in experiment [6] was > 100 µM each time. Besides, the concentration for total growth inhibition (TGI) in experiment [7], in experiment [8], in [9], in experiment [10] and in experiment [11] was > 100 µM throughout.

For `Cc1ccc(C2COc3cc(O)c(O)cc3C2)cc1` (configuration not stated), the concentration for total growth inhibition (TGI) in [1] came to 192 µM; in experiment [3], 12.3 µM; in experiment [4] it was 127 µM; in experiment [6], 62 µM; in experiment [7], 26.2 µM; in experiment [8], 68.4 µM. The TGI was determined as 103 µM in experiment [9], 126 µM in experiment [10], 34.5 µM in [11] and 69.6 µM in experiment [12].

With `CC1(C)N=C(N)N=C(N)N1c1cccc(C(=O)Nc2ccc(S(=O)(=O)F)cc2)c1`, the TGI in experiment [1], in experiment [2], in [3], in experiment [4], in experiment [13] and in experiment [5] was > 100 µM throughout. For the same molecule, the TGI in [6], in experiment [7], in experiment [8], in experiment [9], in experiment [10] and in experiment [11] was > 100 µM each time. Moreover, the total growth inhibition concentration (TGI) in experiment [12] was > 100 µM.
